Data reported in patent US20220096561A1, “INHIBITING OR ALLEVIATING AGENT FOR INFLAMMATION IN THE BRAIN” (NIPPON ZOKI PHARMACEUTICAL CO., LTD., priority 2019, published 2022).

Key:
Format in all cases: cell-based, murine
[1] = tested on: BV-2 cell; assay: IL-1β, IL-6, TNF-α expression in LPS-treated BV-2 cells; conditions: LPS + NTP, pre-treated with 10 uM ANA12 1 h before NTP, FIG. 6A-C
Description: (§1) Immortal BV-2 murine microglial cells, a gift from Dr. Ying Chen of Sun Yat-sen Memorial Hospital, Sun Yat-sen University were cultured as described (refer Non-Patent Document 2). BV-2 cultures were treated with 0.1 NU/mL NTP, then given lipopolysaccharides (1000 ng/mL, LotL2880, O55:B5, Sigma-Aldrich, St. Louis, Mo., USA) 12 h later.

[2] = tested on: BV-2 cell; assay: BDNF level in LPS-treated BV-2 cells; conditions: LPS + NTP + ANA12, FIG. 6E
Description: as §1

[3] = tested on: BV-2 cell; assay: p-p65 and p-IκB-α expression in LPS-stimulated cells; conditions: LPS + NTP + ANA-12, FIG. 6F-H
Description: as §1
Western blotting and semi-quantitative analyses were performed following previously described procedures (refer Liao W, Jiang M J, Li M, Jin C L, Xiao S H, Fan S N, Fang W L, Zheng Y Q and Liu J. Magnesium Elevation Promotes Neuronal Differentiation While Suppressing Glial Differentiation of Primary Cultured Adult Mouse Neural Progenitor Cells through ERK/CREB Activation. Frontiers in Neuroscience 2017; 11:). In brief, proteins in cerebral cortex and hippocampus were extracted with lysis buffer for 30 min, followed by centrifugation at 14,000 rpm for 15 min at […] to obtain the supernatant for western blot analysis. Primary antibodies and dilution rates used were listed as follow: NF-κB (p65), 1:1000; p-IκBα, 1:500 and β-actin, 1:1000. Primary antibodies against NF-κB (p65), p-IκBα and β-actin were purchased from Cell Signaling Technology Inc (MA, USA). […] The quantification of protein expression was analyzed by Image J (National Institutes of Health, Md., USA).

O=C(Nc1ccccc1C(=O)NC1CCCCNC1=O)c1cc2ccccc2s1 (stereo not drawn) [ANA12]
expression of IL-1β [1]: increased after ANA12 administration | expression of IL-6 [1]: increased after ANA12 administration | expression of TNF-α [1]: increased after ANA12 administration | effect of NTP on BDNF [2]: abolished by ANA12 | activation of p-IκB-α [3]: abolished by ANA-12 | activation of p-P65 [3]: abolished by ANA-12
